According to US20110059154A1, “CCR5 ANTAGONISTS AS PROPHYLACTICS FOR PREVENTING HIV INFECTION AND METHODS OF INHIBITING TRANSMISSION OF SAME” (priority 2008, published 2011):
Counter-ions that a name gives are not always drawn.

Experiments:
[1] = test system: HIV-1BaL; test: microbe, parasite or virus in culture; format: cell-based; details: Human immunodeficiency virus 1, TZM-bl, read-out: Inhibition of HIV Infection (TZM-bL cells using luciferase reporter) IC50-RS
[2] = Compound toxicity, MTT dye reduction; format: cell-based; details: human, TZM-bL cells, mean ± D (n independent experiments), read-out: Cytotoxicity CC50 (TZM-bL)
Experimental: Determination of compound toxicity. The viability of cells (TZM-bI) and following treatment with the compound was determined by the principle of MTT dye reduction (see references cited in Fletcher et. al.). All data are expressed as the percentage of viability for compound-treated wells compared to untreated cell control wells, and the 50% cytotoxic concentration (CC50) is defined as the concentration of the drug at which the cell/tissue viability was reduced to 50% of the drug-free control value.

[3] = Initial solubility assessment in solvents useful in making vaginal devices; format: physicochemical
Source text: Initial solubility assessments were made of Compounds 28A, 23 and 5L to evaluate compatibility in various solvents useful in making vaginal devices.

[4] = Thermogravimetric analysis (TGA), thermal stability; format: physicochemical
Experimental: Thermogravimetric analysis (TGA) was conducted with a TGA Q500 from TA instruments. A typical experiment involved heating the material in a platinum pan under a nitrogen purge from 25° C. to 350° C. at 10° C. per minute. Data was analyzed using the Universal using the Universal Analysis software program from TA Instruments.
Thermogravimetric analysis (TGA) was performed on each form to evaluate the thermal stability and presence of any volatiles in the sample (FIG. 3). The onset of thermal degradation is estimated using the derivative of weigh loss curve and was measured as 276° C. and 270° C. for forms 1 and 2 respectively.

[5] = Competition slurry experiment, relative thermodynamic stability of forms 1 and 2; format: physicochemical; details: slurry in 2-propanol and in MTBE, seeded with both forms, 1 week; PXRD and DSC
Experimental: To assess the relative thermodynamic stability of forms 1 and 2, a competition slurry experiment was performed. In this experiment, the as received amorphous material was slurried in one vial containing 2-propanol and another containing MTBE. Seeds of both form 1 and form 2 were added to both vials and stirring continued for 1 week. The solid material was filtered from each vial and analyzed with PXRD and DSC.

With `CO/N=C(\c1ccc(Br)cc1)C1CCN(C2(C)CCN(C(=O)c3c(C)ncnc3C)CC2)CC1` [Compound 5L Tartrate] the IC50 [1] was 119 ± 92.4 nM and the CC50 [2] was 476 ± 117 µM.

With `CCC[C@@H](c1ccc(C(F)(F)F)cc1)N1CCN(C2(C)CCN(C(=O)c3c(C)ncnc3C)CC2)C[C@@H]1C` [Compound 28A] the “Solubility (percent in parentheses)” value ([3]; PEG 400, 1.12 g/cm^3) was no less than 3.4%, the “Solubility (percent in parentheses)” value ([3]; PG (propyleneglycol), 1.038 g/cm^3) was no less than 3.6% and the solubility ([3]; organic solvent or mixture, PEG 400) was no less than 39 mg/mL. It also gave a solubility ([3]; organic solvent or mixture, PG (propyleneglycol)) of no less than 38.4 mg/mL, a solubility ([3]; pH 4.4, aqueous buffer, pH 4.4 citrate buffer) of no less than 11.4 mg/mL and a solubility ([3]; pH 7.5, aqueous buffer, pH 7.5 phosphate buffer) of less than 0.33 mg/mL. It also gave a solubility ([3]; water, DI H20) of no less than 3.85 mg/mL.

In the case of `CO/N=C(\c1ccc(Br)cc1)C1CCN(C2(C)CCN(C(=O)c3c(C)ncnc3C)CC2)CC1` [form 1], the “onset of thermal degradation” value [4] is reported as 276 °C and the “relative thermodynamic stability of forms 1 and 2” value [5] is reported as “more thermodynamically stable form”.
